From patent US20240277693A1, “A PHARMACEUTICAL PRODUCT CONTAINING TASQUINIMOD AND A METHOD FOR ASSESSING THE PURITY OF SAID PRODUCT” (ACTIVE BIOTECH AB, priority 2021, published 2024)

Assays:
[1] = Assessment of capsules after manufacture: amount of tasquinimod and of decomposition products; type: physicochemical; conditions: for amount of compound III in capsules, relative to the amount of tasquinimod / amount of tasquinimod in capsules: after manufacture; for Decomposition products (% w/w), relative to the amount of tasquinimod in capsule / Tasquinimod (mg/capsule): 0 months (after manufacturing)
Text: (§1) In some embodiments, the method disclosed herein comprises storing (keeping) a sample of the pharmaceutical product for a period of time, preferably under selected conditions of temperature and humidity. The amount (or concentration) of tasquinimod and of at least one of compounds I, II, III and IV in the sample may preferably be determined at the beginning or before the storage period and at the end of the storage period. The selected storage conditions may include a temperature in the range of, for example, 20° C. to 40° C., and a relative humidity in the surrounding atmosphere in the range of, for example, 30% to 75%; e.g. 25° C. and 60% RH, or 30° C. and 65% RH, or 35° C. and 70% RH, or 40° C. and 75% RH. The storage period may extend over a time period in the range of, for example, several weeks to several years. For example, the stability testing period (“storage period”) may be 2 weeks, 3 weeks, 1 month, 2 months, 3 months, 4 months, 5 months, 6 months, 9 months, 1 year, 18 months, 2 years, 3 years, 4 years or even 5 years or longer. A shorter storage period may be selected by use of higher storage temperature and/or higher relative humidity (RH). The total amount of a tasquinimod decomposition product in the sample at the end of the storage period may be determined by, for example, HPLC.
The obtained batch of capsules was assessed by determining the amount of tasquinimod and the amount of compound III in a sample of the capsules. The selected criterion for approving the batch was that the capsules of the sample contain not more than 1.0% w/w of compound III relative to the amount of tasquinimod. […] Therefore, according to the selected criterion for approval, the batch of capsules was determined to be suitable for distribution.
The obtained batch of capsules was assessed by determining the amount of tasquinimod and the amount of compounds I, II, III and IV in a sample of the capsules. The selected criterion for approving the batch was that the capsules of the sample contain not more than in total 5% w/w of compounds I-IV relative to the amount of tasquinimod. […] Therefore, according to the selected criterion for approval, the batch of capsules was determined to be suitable for distribution.
(§2) The obtained batch of capsules was subjected to multiple assessments, viz. a first assessment comprising determining the amount of tasquinimod and the amount of compounds I, II, III and IV in a sample of the capsules directly after manufacturing, whereby the selected criterion for approving the batch for distribution was that the capsules of the sample, in a water impermeable blister pack, contain not more than in total 5% w/w of compounds I-IV relative to the amount of tasquinimod, followed by eight further, independent assessments, by determining the amount of tasquinimod and the amount of each one of compounds I, II, III and IV in a sample of the capsules at the end of a period of stability testing (by keeping the capsules, in a water impermeable blister pack, at 25° C./60% RH) of 3, 6, 9, 12, 18, 24, 36 and 48 months, respectively, whereby each time the criterion for approving the batch was that the capsules of the sample, at the end of each period of stability testing, contain a total amount of compounds I-IV of not more than 5.0% w/w, relative to the amount of tasquinimod in the capsules.

[2] = Stability testing of capsules at 25° C./60% RH in water impermeable blister pack; type: physicochemical
Text: as §1
The batch of capsules manufactured in Example 19 was assessed by determining the amount of tasquinimod and the amount of each one of compounds I, II, III and IV in a sample of the capsules at the end of a 3-month stability testing, whereby the criterion for approving the batch was that the capsules of the sample, at the end of the 3-month stability testing, contain a total amount of compounds I-IV of not more than 5.0% w/w, relative to the amount of tasquinimod in the capsules. The stability testing consisted of keeping the capsules, in a water impermeable blister pack, at 25° C./60% RH. At the end of the stability testing, the capsules contained 0.06% w/w of compound I, less than 0.05% w/w of compound II, 0.10% of compound III and less than 0.05% w/w of compound IV, relative to the amount of tasquinimod (determined to be 0.246 mg/capsule), viz. in total less than 0.26% w/w of compounds I-IV relative to the amount of tasquinimod. Therefore, according to the selected criterion for approval, the batch of capsules was determined to be suitable for distribution.
as §2

[3] = 0.25 mg capsules of Example 19, 3 months
[4] = 0.25 mg capsules of Example 19, 6 months
[5] = 0.25 mg capsules of Example 19, 9 months
[6] = 0.25 mg capsules of Example 19, 12 months
[7] = 0.25 mg capsules of Example 19, 18 months
[8] = 0.25 mg capsules of Example 19, 24 months
[9] = 0.25 mg capsules of Example 19, 36 months
[10] = 0.25 mg capsules of Example 19, 48 months
[11] = 0.5 mg capsules of Example 28, 3 months
[12] = 0.5 mg capsules of Example 28, 6 months
[13] = 0.5 mg capsules of Example 28, 9 months
[14] = 0.5 mg capsules of Example 28, 12 months
[15] = 0.5 mg capsules of Example 28, 18 months
[16] = 0.5 mg capsules of Example 28, 24 months
[17] = 0.5 mg capsules of Example 28, 36 months
[18] = 0.5 mg capsules of Example 28, 48 months
[19] = 1.0 mg capsules of Example 29, 3 months
[20] = 1.0 mg capsules of Example 29, 6 months
[21] = 1.0 mg capsules of Example 29, 9 months
[22] = 1.0 mg capsules of Example 29, 12 months
[23] = 1.0 mg capsules of Example 29, 18 months
[24] = 1.0 mg capsules of Example 29, 24 months
[25] = 1.0 mg capsules of Example 29, 36 months
[26] = 1.0 mg capsules of Example 29, 48 months

For `COc1cccc2c1c(O)cc(=O)n2C` [Compound III, 4-hydroxy-5-methoxy-1-methylquinolin-2(1H)-one], the “amount of compound III in capsules, relative to the amount of tasquinimod” value ([1]; 0.25 mg capsules of Example 10) was 0.07 % w/w, the “amount of compound III in capsules, relative to the amount of tasquinimod” value ([1]; 0.25 mg capsules of Example 13) was 0.06 % w/w and the “amount of compound III in capsules, relative to the amount of tasquinimod” value ([1]; 0.5 mg capsules of Example 7) was 0.03 % w/w. For the same compound, the “Decomposition products (% w/w), relative to the amount of tasquinimod in capsule” value ([1]; 0.5 mg capsules of Example 28) was less than 0.05 % w/w, the “amount of compound III in capsules, relative to the amount of tasquinimod” value ([1]; 1 mg capsules of Example 2) was 0.01 % w/w and the “amount of compound III in capsules, relative to the amount of tasquinimod” value ([1]; 1 mg capsules of Example 16) was 0.02 % w/w. For the same compound, the “Decomposition products (% w/w), relative to the amount of tasquinimod in capsule” value ([1]; 1.0 mg capsules of Example 29) was less than 0.05 % w/w, the “amount of decomposition product (each of compounds I-IV) in capsules, relative to the amount of tasquinimod” value [2, 3] was 0.10 % w/w and the “amount of decomposition product (each of compounds I-IV) in capsules, relative to the amount of tasquinimod” value [2, 4] was 0.16 % w/w. The “amount of decomposition product (each of compounds I-IV) in capsules, relative to the amount of tasquinimod” value [2, 5] was 0.21 % w/w, the “amount of decomposition product (each of compounds I-IV) in capsules, relative to the amount of tasquinimod” value [2, 6] was 0.26 % w/w and the “amount of decomposition product (each of compounds I-IV) in capsules, relative to the amount of tasquinimod” value [2, 7] was 0.35 % w/w. For the same compound, the “amount of decomposition product (each of compounds I-IV) in capsules, relative to the amount of tasquinimod” value [2, 8] was 0.41 % w/w, the “amount of decomposition product (each of compounds I-IV) in capsules, relative to the amount of tasquinimod” value [2, 9] was 0.57 % w/w and the “amount of decomposition product (each of compounds I-IV) in capsules, relative to the amount of tasquinimod” value [2, 10] was 0.79 % w/w. The “Decomposition products (% w/w), relative to the amount of tasquinimod in capsule” value [2, 11] was 0.05 % w/w, the “Decomposition products (% w/w), relative to the amount of tasquinimod in capsule” value [2, 12] was 0.09 % w/w and the “Decomposition products (% w/w), relative to the amount of tasquinimod in capsule” value [2, 13] was 0.11 % w/w. For the same compound, the “Decomposition products (% w/w), relative to the amount of tasquinimod in capsule” value [2, 14] was 0.13 % w/w, the “Decomposition products (% w/w), relative to the amount of tasquinimod in capsule” value [2, 15] was 0.16 % w/w and the “Decomposition products (% w/w), relative to the amount of tasquinimod in capsule” value [2, 16] was 0.19 % w/w. For the same compound, the “Decomposition products (% w/w), relative to the amount of tasquinimod in capsule” value [2, 17] was 0.27 % w/w, the “Decomposition products (% w/w), relative to the amount of tasquinimod in capsule” value [2, 18] was 0.36 % w/w and the “Decomposition products (% w/w), relative to the amount of tasquinimod in capsule” value [2, 19] was less than 0.05 % w/w. For the same compound, the “Decomposition products (% w/w), relative to the amount of tasquinimod in capsule” value [2, 20] was less than 0.05 % w/w, the “Decomposition products (% w/w), relative to the amount of tasquinimod in capsule” value [2, 21] was less than 0.05 % w/w and the “Decomposition products (% w/w), relative to the amount of tasquinimod in capsule” value [2, 22] was 0.06 % w/w. The “Decomposition products (% w/w), relative to the amount of tasquinimod in capsule” value [2, 23] was 0.09 % w/w, the “Decomposition products (% w/w), relative to the amount of tasquinimod in capsule” value [2, 24] was 0.10 % w/w and the “Decomposition products (% w/w), relative to the amount of tasquinimod in capsule” value [2, 25] was 0.15 % w/w. For the same compound, the “Decomposition products (% w/w), relative to the amount of tasquinimod in capsule” value [2, 26] was 0.18 % w/w.
For `COc1cccc2c1c(O)c(C(=O)N(C)c1ccc(C(F)(F)F)cc1)c(=O)n2C` [Tasquinimod, 4-hydroxy-5-methoxy-N, 1-dimethyl-2-oxo-N-[4-(trifluoromethyl)phenyl]-1,2-dihydroquinoline-3-carboxamide], the “amount of tasquinimod in capsules” value ([1]; 0.25 mg capsules of Example 10) was 0.252 mg/capsule, the “amount of tasquinimod in capsules” value ([1]; 0.25 mg capsules of Example 13) was 0.256 mg/capsule and the “amount of tasquinimod in capsules” value ([1]; 0.25 mg capsules of Example 19) was 0.244 mg/capsule. The “amount of tasquinimod in capsules” value ([1]; 0.5 mg capsules of Example 7) was 0.498 mg/capsule, the “Tasquinimod (mg/capsule)” value ([1]; 0.5 mg capsules of Example 28) was 0.500 mg/capsule and the “amount of tasquinimod in capsules” value ([1]; 1 mg capsules of Example 2) was 1.05 mg/capsule. The “amount of tasquinimod in capsules” value ([1]; 1 mg capsules of Example 16) was 0.994 mg/capsule, the “Tasquinimod (mg/capsule)” value ([1]; 1.0 mg capsules of Example 29) was 0.992 mg/capsule and the “amount of tasquinimod in capsules” value [2, 3] was 0.246 mg/capsule. For the same compound, the “amount of tasquinimod in capsules” value [2, 4] was 0.243 mg/capsule, the “amount of tasquinimod in capsules” value [2, 5] was 0.243 mg/capsule and the “amount of tasquinimod in capsules” value [2, 6] was 0.245 mg/capsule. The “amount of tasquinimod in capsules” value [2, 7] was 0.245 mg/capsule, the “amount of tasquinimod in capsules” value [2, 8] was 0.237 mg/capsule and the “amount of tasquinimod in capsules” value [2, 9] was 0.237 mg/capsule. The “amount of tasquinimod in capsules” value [2, 10] was 0.238 mg/capsule, the “Tasquinimod (mg/capsule)” value [2, 11] was 0.501 mg/capsule and the “Tasquinimod (mg/capsule)” value [2, 12] was 0.497 mg/capsule. For the same compound, the “Tasquinimod (mg/capsule)” value [2, 13] was 0.504 mg/capsule, the “Tasquinimod (mg/capsule)” value [2, 14] was 0.500 mg/capsule and the “Tasquinimod (mg/capsule)” value [2, 15] was 0.501 mg/capsule. For the same compound, the “Tasquinimod (mg/capsule)” value [2, 16] was 0.486 mg/capsule, the “Tasquinimod (mg/capsule)” value [2, 17] was 0.490 mg/capsule and the “Tasquinimod (mg/capsule)” value [2, 18] was 0.494 mg/capsule. The “Tasquinimod (mg/capsule)” value [2, 19] was 0.989 mg/capsule, the “Tasquinimod (mg/capsule)” value [2, 20] was 0.988 mg/capsule and the “Tasquinimod (mg/capsule)” value [2, 21] was 1.007 mg/capsule. The “Tasquinimod (mg/capsule)” value [2, 22] was 0.992 mg/capsule, the “Tasquinimod (mg/capsule)” value [2, 23] was 0.982 mg/capsule and the “Tasquinimod (mg/capsule)” value [2, 24] was 0.997 mg/capsule. For the same compound, the “Tasquinimod (mg/capsule)” value [2, 25] was 1.000 mg/capsule and the “Tasquinimod (mg/capsule)” value [2, 26] was 0.987 mg/capsule.
